In brackets after ≈: the same amount, converted by molar mass. Activity calls are given as the source filed them. No cut-off for these calls is given here.
Tests used:
Escherichia coli [1] = experiment: Antibacterial activity against Escherichia coli ATCC 25922 incubated for 16 to 18 hrs by broth dilution assay; type: functional; conditions: time 16-18 hrs
Klebsiella pneumoniae = experiment: Antibacterial activity against Klebsiella pneumoniae ATCC 27736 incubated for 16 to 18 hrs by broth dilution assay; type: functional; conditions: time 16-18 hrs
Pseudomonas aeruginosa = experiment: Antibacterial activity against Pseudomonas aeruginosa ATCC BAA-427 incubated for 16 to 18 hrs by broth dilution assay; type: functional; conditions: time 16-18 hrs
Staphylococcus aureus [2] = experiment: Antibacterial activity against Staphylococcus aureus ATCC 25923 incubated for 16 to 18 hrs by broth dilution assay; type: functional; conditions: time 16-18 hrs
Bacillus subtilis = experiment: Antibacterial activity against Bacillus subtilis 6633 incubated for 16 to 18 hrs by broth dilution assay; type: functional; conditions: time 16-18 hrs
Staphylococcus aureus [3] = experiment: Antibacterial activity against methicillin-resistant Staphylococcus aureus 33591 incubated for 16 to 18 hrs by broth dilution assay; type: functional; conditions: time 16-18 hrs
Staphylococcus aureus [4] = experiment: Antibacterial activity against methicillin-resistant Staphylococcus aureus BAA-44 incubated for 16 to 18 hrs by broth dilution assay; type: functional; conditions: time 16-18 hrs
Escherichia coli [5] = experiment: Induction of resistance development in Escherichia coli ATCC 25922 assessed as fold increase in MIC at sub-MIC measured after 30 passages relative to control; type: functional
Staphylococcus aureus [6] = experiment: Induction of resistance development in Staphylococcus aureus ATCC 25923 assessed as fold increase in MIC at sub-MIC measured after 30 passages relative to control; type: functional
Staphylococcus aureus [7] = experiment: Induction of resistance development in methicillin-resistant Staphylococcus aureus 33591 assessed as fold increase in MIC at sub-MIC measured after 30 passages relative to control; type: functional
Staphylococcus aureus [8] = experiment: Induction of resistance development in methicillin-resistant Staphylococcus aureus BAA-44 assessed as fold increase in MIC at sub-MIC measured after 30 passages relative to control; type: functional
[9] = Retention time of compound by RP-HPLC method; type: physicochemical
[10] = Hemolytic activity in human RBC at 100 uM measured after 40 mins by absorbance based assay relative to control; type: toxicity, cell-based, Erythrocyte
[11] = Hemolytic activity in human RBC measured after 40 mins by absorbance based assay; type: toxicity, cell-based, Erythrocyte; conditions: human red blood cells
Escherichia coli [12] = experiment: Bactericidal activity against Escherichia coli ATCC 25922 incubated for 16 to 18 hrs; type: functional; conditions: time 16-18 hrs
Escherichia coli [13] = experiment: Antibacterial activity against Escherichia coli ATCC 25922 incubated for 16 to 18 hrs in presence of 10 percent human serum by broth dilution assay; type: functional; conditions: time 16-18 hrs
Staphylococcus aureus [14] = experiment: Bactericidal activity against Staphylococcus aureus ATCC 25923 incubated for 16 to 18 hrs; type: functional; conditions: time 16-18 hrs
Staphylococcus aureus [15] = experiment: Antibacterial activity against Staphylococcus aureus ATCC 25923 incubated for 16 to 18 hrs in presence of 10 percent human serum by broth dilution assay; type: functional; conditions: time 16-18 hrs
3T3-L1 = experiment: (§1) Cytotoxicity against mouse 3T3-L1 cells assessed as cell viability at 100 uM incubated for 24 hrs by MTT assay relative to control; type: toxicity, cell-based; conditions: 3t3-l1, 24 h, 100 µM
L6 = experiment: (§2) Cytotoxicity against rat L6 cells assessed as cell viability at 100 uM incubated for 24 hrs by MTT assay relative to control; type: toxicity, cell-based; conditions: l6, 24 h, 100 µM
Escherichia coli [16] = experiment: Bactericidal activity against Escherichia coli ATCC 25922 at MIC incubated for 60 mins by time kill assay; type: functional, organism-based
Staphylococcus aureus [17] = experiment: Bactericidal activity against Staphylococcus aureus ATCC 25923 at MIC incubated for 60 mins by time kill assay; type: functional, organism-based
Escherichia coli [18] = experiment: Induction of membrane depolarization in Escherichia coli ATCC 25922 by diSC3-5 dye based analysis; type: functional, organism-based
Staphylococcus aureus [19] = experiment: Induction of membrane depolarization in Staphylococcus aureus ATCC 25923 by diSC3-5 dye based analysis; type: functional, organism-based
Escherichia coli [20] = experiment: Disruption of plasma membrane integrity in Escherichia coli ATCC 25922 by SYTOX-Green uptake assay; type: functional, organism-based
Staphylococcus aureus [21] = experiment: Disruption of plasma membrane integrity in Staphylococcus aureus ATCC 25923 by SYTOX-Green uptake assay; type: functional, organism-based
Escherichia coli [22] = experiment: Disruption of membrane integrity in Escherichia coli ATCC 25922 by PI staining based analysis; type: functional, organism-based
Staphylococcus aureus [23] = experiment: Disruption of membrane integrity in Staphylococcus aureus ATCC 25923 by PI staining based analysis; type: functional, organism-based
[24] = Hemolytic activity in human RBC assessed as disruption of membrane integrity by Alexa Fluor-Annexin V staining based analysis; type: toxicity, cell-based; conditions: erythrocyte
[25] = system: Mycolicibacterium smegmatis; experiment: Antitubercular activity against Mycobacterium smegmatis incubated for 24 hrs by rezasurin dye based assay; type: functional
[26] = as §1; type: toxicity, cell-based; conditions: 3T3-L1 cells, read-out: Activity
[27] = as §2; type: toxicity, cell-based; conditions: L6 cells, read-out: Activity
Escherichia coli [28] = experiment: Bactericidal activity against Escherichia coli ATCC 25922 at MIC incubated for 45 mins by time kill assay; type: functional, organism-based
Staphylococcus aureus [29] = experiment: Bactericidal activity against Staphylococcus aureus ATCC 25923 at MIC incubated for 45 mins by time kill assay; type: functional, organism-based
Escherichia coli [30] = experiment: Bactericidal activity against Escherichia coli ATCC 25922 at MIC incubated for 30 mins by time kill assay; type: functional, organism-based
[31] = Toxicity in BALB/c mouse assessed as animal survival at 15 mg/kg, iv administered thrice at 2 hrs interval measured after 7 days; type: organism-based; conditions: in vivo, 168 h, time 7 day
[32] = Toxicity in BALB/c mouse assessed as change in AST level at 15 mg/kg, iv administered thrice at 2 hrs interval measured after 7 days; type: organism-based; conditions: in vivo, 168 h, time 7 day
[33] = Toxicity in BALB/c mouse assessed as change in ALT level at 15 mg/kg, iv administered thrice at 2 hrs interval measured after 7 days; type: organism-based; conditions: in vivo, 168 h, time 7 day
[34] = Toxicity in BALB/c mouse infected with Escherichia coli ATCC 25922 assessed as animal survival at 5 mg/kg, iv administered thrice at 1,3 and 5 hrs post-infection measured after 7 days; type: organism-based; conditions: in vivo, 168 h, time 7 day
[35] = Toxicity in BALB/c mouse infected with Escherichia coli ATCC 25922 assessed as animal survival at 2.5 mg/kg, iv administered thrice at 1,3 and 5 hrs post-infection measured after 7 days; type: organism-based; conditions: in vivo, 168 h, time 7 day
Escherichia coli [36] = experiment: Antibacterial activity against Escherichia coli ATCC 25922 infected in BALB/c mouse assessed as bacterial load in blood at 5 mg/kg, iv administered thrice at 1,3 and 5 hrs post-infection measured after 24 hrs post-last dose (Rvb ~ 4 x10^6 CFU/mL); type: functional; conditions: time 29 hrs
Escherichia coli [37] = experiment: Antibacterial activity against Escherichia coli ATCC 25922 infected in BALB/c mouse assessed as bacterial count in liver at 5 mg/kg, iv administered thrice at 1,3 and 5 hrs post-infection measured after 24 hrs post-last dose (Rvb ~ 2.3 x10^7 CFU/mL); type: functional; conditions: time 29 hrs
Escherichia coli [38] = experiment: Antibacterial activity against Escherichia coli ATCC 25922 infected in BALB/c mouse assessed as bacterial count in spleen at 5 mg/kg, iv administered thrice at 1,3 and 5 hrs post-infection measured after 24 hrs post-last dose (Rvb ~ 1.9 x10^7 CFU/mL); type: functional; conditions: time 29 hrs
Escherichia coli [39] = experiment: Antibacterial activity against Escherichia coli ATCC 25922 infected in BALB/c mouse assessed as bacterial count in kidney at 5 mg/kg, iv administered thrice at 1,3 and 5 hrs post-infection measured after 24 hrs post-last dose (Rvb ~ 1.8 x10^7 CFU/mL); type: functional; conditions: time 29 hrs
Escherichia coli [40] = experiment: Antibacterial activity against Escherichia coli ATCC 25922 infected in BALB/c mouse assessed as bacterial count in blood at 5 mg/kg, iv administered thrice at 1,3 and 5 hrs post-infection measured after 24 hrs post-last dose (Rvb ~ 9.6 x10^6 CFU/mL); type: functional; conditions: time 29 hrs
[41] = Stability in 10 percent human serum assessed as compound remaining measured after 60 mins by RP-HPLC analysis; type: ADME, cell-free; conditions: 10% human serum, read-out: Stability

Compound	MIC (Escherichia coli [1]) [µM]	MIC (Klebsiella pneumoniae) [µM]	MIC (Pseudomonas aeruginosa) [µM]	MIC (Staphylococcus aureus [2]) [µM]	MIC (Bacillus subtilis) [µM]	MIC (Staphylococcus aureus [3]) [µM]	MIC (Staphylococcus aureus [4]) [µM]	Retention_time [9] [min]	HC50 at 40 min [11] [mM]	MBC (Escherichia coli [12]) [µM]	MIC (Escherichia coli [13]) [µM]	MBC (Staphylococcus aureus [14]) [µM]	MIC (Staphylococcus aureus [15]) [µM]	Activity (Escherichia coli [18])	Activity (Staphylococcus aureus [19])	Activity (Escherichia coli [20])	Activity (Staphylococcus aureus [21])	Activity (Escherichia coli [22])	Activity (Staphylococcus aureus [23])	Activity [24]	other results
O=C(O)c1cn(C2CC2)c2cc(N3CCNCC3)c(F)cc2c1=O [CIPROFLOXACIN]	0.1 (≈ 0.0331 µg/mL)	0.1 (≈ 0.0331 µg/mL)	6.3 (≈ 2.09 µg/mL)	6.3 (≈ 2.09 µg/mL)	6.3 (≈ 2.09 µg/mL)	6.3 (≈ 2.09 µg/mL)	6.3 (≈ 2.09 µg/mL)														fold change (FC) (Escherichia coli [5]): 128; fold change (FC) (Staphylococcus aureus [6]): 128; fold change (FC) (Staphylococcus aureus [7]): 128; fold change (FC) (Staphylococcus aureus [8]): 128
H-RLVRLVRLVRLVRLV-OH	1.7	1.7	6.7	1.7	1.7	3.4	1.7	20.78	0.232	6.8	6.8	3.4	3.4	Active	Active	Active	Active	Active	Active	Non-toxic	hemolysis at 40 min, 100 µM ([10]; human red blood cells, read-out: Activity): 20%; Activity (3T3-L1): Toxic; Activity (L6): Toxic; Activity (Escherichia coli [16]): Active; Exhibited Rapid Kinetics; Activity (Staphylococcus aureus [17]): Active; Exhibited Rapid Kinetics; MIC [25]: 5 µM
H-KVLKVLKVLKVL-OH	1.1	4.5	9	18.1	9	9	2.3	19.44	2	2.2	2.2	18.1	36.2	Active	Active	Active	Active	Active	Active	Non-toxic	viability at 24 h, 100 µM [26]: 75%; viability at 24 h, 100 µM [27]: 75%; Activity (Escherichia coli [28]): Active; Activity (Staphylococcus aureus [29]): Active; Activity (Escherichia coli [30]): Active; Emerged As Swiftest Molecule; Activity [31]: Non-toxic; Activity [32]: Non-toxic; Activity [33]: Non-toxic; Survival [34]: 80%; Survival [35]: 40%; Activity (Escherichia coli [36]): 3400 CFU/ml; Activity (Escherichia coli [37]): 9100 CFU/ml; Activity (Escherichia coli [38]): 7800 CFU/ml; Activity (Escherichia coli [39]): 2.9 10^4CFU/ml; Activity (Escherichia coli [40]): 2656 CFU/ml; MIC [25]: > 10 µM
H-RLRLRLRLRL-OH	2.3	18.3	18.3	4.6	4.6	18.3	18.3	15.27	1.82	4.6	4.6	9.2	9.2	Active	Active	Active	Active	Active	Active	Non-toxic	Activity ([10]; erythrocyte, 40 min, 100 µM): Non-toxic; Activity (3T3-L1): Toxic; Activity (L6): Toxic; Activity (Escherichia coli [16]): Active; Exhibited Rapid Kinetics; Activity (Staphylococcus aureus [17]): Active; Exhibited Rapid Kinetics; remaining at 1 h [41]: 70%; Activity [31]: Toxic; Activity [32]: Non-toxic; Activity [33]: Non-toxic; Survival [34]: 80%; Survival [35]: 20%; Activity (Escherichia coli [36]): 7700 CFU/ml; Activity (Escherichia coli [37]): 2.7 10^4CFU/ml; Activity (Escherichia coli [38]): 6.8 10^4CFU/ml; Activity (Escherichia coli [39]): 2.6 10^4CFU/ml; Activity (Escherichia coli [40]): 2.4 10^4CFU/ml; MIC [25]: 10 µM

Source: ChEMBL document CHEMBL6087460, “Generating a Peptide Library Using the Repeats of Amino Acid Scaffolds Created by Sliding the Framework of a 7-mer Human Chemerin Segment and Discovery of Potent Antibacterial and Antimycobacterial Peptides” (J Med Chem, 2025)
